Experiments:
MV4-11 [1] = experiment: Induction of cell cycle arrest in human MV4-11 cells assessed as accumulation of cells at G2/M phase at 150 nM incubated for 48 hrs by […]PI staining based flow cytometry (reference value: 11.5%); assay type: functional
HL-60 = experiment: cells; assay type: functional, cell-based; details: Homo sapiens, HL-60, 72 h
Description: Antiproliferative activity against human HL-60 cells assessed as inhibition of cell proliferation incubated for 72 hrs by CCK8 assay

MV4-11 [2] = experiment: Induction of cell cycle arrest in human MV4-11 cells assessed as accumulation of cells at G2/M phase at 50 nM incubated for 48 hrs by […]PI staining based flow cytometry (reference value: 11.5%); assay type: functional
MV4-11 [3] = experiment: Induction of apoptosis in human MV4-11 cells assessed as late apoptotic cells at 50 nM incubated for 48 hrs by Annexin V-FITC/PI staining based flow cytometry (reference value: 2.04%); assay type: functional
[4] = molecular target: Phosphatidylinositol 4,5-bisphosphate 3-kinase catalytic subunit alpha isoform (Homo sapiens, UniProt P42336); experiment: Inhibition of PI3Kalpha (unknown origin) by mobility shift assay
MV4-11 [5] = experiment: Induction of cell cycle arrest in human MV4-11 cells assessed as accumulation of cells at G0/G1 phase at 450 nM incubated for 48 hrs by […]PI staining based flow cytometry (reference value: 33.1%); assay type: functional
MV4-11 [6] = experiment: Induction of apoptosis in human MV4-11 cells assessed as necrotic cells at 50 nM incubated for 48 hrs by Annexin V-FITC/PI staining based flow cytometry (reference value: 0.51%); assay type: functional
HGC-27 = experiment: Antiproliferative activity against human HGC-27 cells assessed as inhibition of cell proliferation incubated for 72 hrs by MTT assay; assay type: functional, cell-based; details: HGC-27, 72 h
MV4-11 [7] = experiment: Induction of cell cycle arrest in human MV4-11 cells assessed as accumulation of cells at G0/G1 phase at 150 nM incubated for 48 hrs by […]PI staining based flow cytometry (reference value: 33.1%); assay type: functional
MV4-11 [8] = experiment: Induction of apoptosis in human MV4-11 cells assessed as early apoptotic cells at 450 nM incubated for 48 hrs by Annexin V-FITC/PI staining based flow cytometry (reference value: 0.95%); assay type: functional
MCF7 = experiment: Antiproliferative activity against human MCF7 cells assessed as inhibition of cell proliferation incubated for 72 hrs by MTT assay; assay type: functional, cell-based; details: MCF7, 72 h
MV4-11 [9] = experiment: Induction of cell cycle arrest in human MV4-11 cells assessed as accumulation of cells at G2/M phase at 1350 nM incubated for 48 hrs by […]PI staining based flow cytometry (reference value: 11.5%); assay type: functional
A549 = experiment: Antiproliferative activity against human A549 cells assessed as inhibition of cell proliferation incubated for 72 hrs by MTT assay; assay type: functional, cell-based; details: A549, 72 h
MV4-11 [10] = experiment: cells; assay type: functional, cell-based; details: Homo sapiens, MV4-11, 72 h
Description: Antiproliferative activity against human MV4-11 cells assessed as inhibition of cell proliferation incubated for 72 hrs by CCK8 assay

MV4-11 [11] = experiment: Induction of apoptosis in human MV4-11 cells assessed as early apoptotic cells at 50 nM incubated for 48 hrs by Annexin V-FITC/PI staining based flow cytometry (reference value: 0.95%); assay type: functional
MV4-11 [12] = experiment: Induction of cell cycle arrest in human MV4-11 cells assessed as accumulation of cells at S phase at 1350 nM incubated for 48 hrs by […]PI staining based flow cytometry (reference value: 45.5%); assay type: functional
HepG2 = experiment: Antiproliferative activity against human HepG2 cells assessed as inhibition of cell proliferation incubated for 72 hrs by MTT assay; assay type: functional, cell-based; details: HepG2, 72 h
MV4-11 [13] = experiment: Induction of cell cycle arrest in human MV4-11 cells assessed as accumulation of cells at G0/G1 phase at 50 nM incubated for 48 hrs by […]PI staining based flow cytometry (reference value: 33.1%); assay type: functional
MV4-11 [14] = experiment: Inhibition of PI3K in human MV4-11 cells assessed as downregulation of phosphorylated AKT expression incubated for 24 hrs by western blot analysis; assay type: cell-based; details: dose 0.05-0.45 µM, DDE = dose-dependent effect

Chain of Phosphatidylinositol 4,5-bisphosphate 3-kinase catalytic subunit alpha isoform (P42336 whole entry, canonical isoform): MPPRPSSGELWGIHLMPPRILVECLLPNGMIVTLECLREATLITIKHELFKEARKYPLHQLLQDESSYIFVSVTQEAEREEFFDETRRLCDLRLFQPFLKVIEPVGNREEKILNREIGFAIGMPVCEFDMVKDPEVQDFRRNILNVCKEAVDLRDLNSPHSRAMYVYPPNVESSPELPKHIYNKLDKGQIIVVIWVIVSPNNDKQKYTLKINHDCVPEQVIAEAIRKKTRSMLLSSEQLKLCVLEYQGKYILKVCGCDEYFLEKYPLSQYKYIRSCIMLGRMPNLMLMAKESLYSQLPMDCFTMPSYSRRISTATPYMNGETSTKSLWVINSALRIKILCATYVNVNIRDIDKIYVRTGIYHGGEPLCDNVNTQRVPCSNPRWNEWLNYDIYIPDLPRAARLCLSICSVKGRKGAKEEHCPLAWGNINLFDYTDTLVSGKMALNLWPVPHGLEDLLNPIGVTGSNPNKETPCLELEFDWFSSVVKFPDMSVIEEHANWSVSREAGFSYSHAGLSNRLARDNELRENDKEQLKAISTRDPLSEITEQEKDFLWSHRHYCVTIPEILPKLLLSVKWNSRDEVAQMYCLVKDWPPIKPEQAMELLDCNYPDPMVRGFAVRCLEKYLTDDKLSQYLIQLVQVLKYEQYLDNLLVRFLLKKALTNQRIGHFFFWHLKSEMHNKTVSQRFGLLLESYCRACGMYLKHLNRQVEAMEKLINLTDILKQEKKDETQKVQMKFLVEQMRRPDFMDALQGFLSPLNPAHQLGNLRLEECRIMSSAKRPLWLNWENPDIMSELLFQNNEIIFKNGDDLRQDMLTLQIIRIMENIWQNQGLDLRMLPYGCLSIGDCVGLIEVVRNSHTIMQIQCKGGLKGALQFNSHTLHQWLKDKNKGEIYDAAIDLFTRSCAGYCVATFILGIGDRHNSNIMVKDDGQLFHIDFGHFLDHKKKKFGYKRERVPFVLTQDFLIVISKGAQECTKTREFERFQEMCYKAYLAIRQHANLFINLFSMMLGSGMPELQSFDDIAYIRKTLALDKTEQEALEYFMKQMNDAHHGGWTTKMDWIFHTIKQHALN

IC50 (HL-60): 350 nM | IC50 [4]: 373 nM | IC50 (MCF7): 400 nM | IC50 (A549): 11000 nM | IC50 (MV4-11 [10]): 90 nM | IC50 (HepG2): 1190 nM
Structure (SMILES): O=C(NO)c1ccc(Cn2cc(-c3cccc4[nH]ncc34)nc(N3CCOCC3)c2=O)cc1
Activity (MV4-11 [1]): 32.9% | Activity (MV4-11 [2]): 24.6% | Activity (MV4-11 [3]): 3.67% | Activity (MV4-11 [5]): 15.1% | Activity (MV4-11 [6]): 0.34% | IC50 (HGC-27): 880 nM | Activity (MV4-11 [7]): 25.6% | Activity (MV4-11 [8]): 34.6% | Activity (MV4-11 [9]): 51.8% | Activity (MV4-11 [11]): 3.53% | Activity (MV4-11 [12]): 25.2% | Activity (MV4-11 [13]): 28.4% | inhibition (MV4-11 [14]): Dde
